Source: ChEMBL document CHEMBL1145498, “A systematic interaction map of validated kinase inhibitors with Ser/Thr kinases” (Proc Natl Acad Sci U S A, 2007)

What follows are compounds tested against Calcium/calmodulin-dependent protein kinase type 1D (Homo sapiens) (UniProt Q8IU85).
Calcium/calmodulin-dependent protein kinase type 1D (Homo sapiens), sequence (Q8IU85 whole entry, looked up): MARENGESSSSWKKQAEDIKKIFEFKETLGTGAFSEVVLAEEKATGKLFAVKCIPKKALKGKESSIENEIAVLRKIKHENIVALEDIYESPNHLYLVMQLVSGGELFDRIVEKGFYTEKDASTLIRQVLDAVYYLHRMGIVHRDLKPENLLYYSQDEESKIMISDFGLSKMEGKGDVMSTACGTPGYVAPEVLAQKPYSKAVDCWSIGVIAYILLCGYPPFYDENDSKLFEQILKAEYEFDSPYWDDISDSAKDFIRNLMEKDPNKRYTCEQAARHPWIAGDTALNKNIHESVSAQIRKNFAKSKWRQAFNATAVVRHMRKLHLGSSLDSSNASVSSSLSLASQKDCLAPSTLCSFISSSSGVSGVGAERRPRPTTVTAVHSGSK

ΔTm	Compound
0.4 °C	Cc1[nH]c(/C=C2\C(=O)Nc3ccc(S(=O)(=O)N(C)c4cccc(Cl)c4)cc32)c(C)c1C(=O)N1CCN(C)CC1
0.7 °C	COc1cc2ncnc(Nc3ccc(NC(=O)c4ccccc4)cc3)c2cc1OC [ANILINOQUINAZOLINE1]

Compound	ΔTm
NC(=O)c1ccc2[nH]c(-c3ccc(Oc4ccc(Cl)cc4)cc3)nc2c1	1.1 °C

Each compound was assayed against Cyclin-dependent kinase 6 (Homo sapiens) (UniProt Q00534).
Cyclin-dependent kinase 6 (Homo sapiens), sequence (Q00534 whole entry): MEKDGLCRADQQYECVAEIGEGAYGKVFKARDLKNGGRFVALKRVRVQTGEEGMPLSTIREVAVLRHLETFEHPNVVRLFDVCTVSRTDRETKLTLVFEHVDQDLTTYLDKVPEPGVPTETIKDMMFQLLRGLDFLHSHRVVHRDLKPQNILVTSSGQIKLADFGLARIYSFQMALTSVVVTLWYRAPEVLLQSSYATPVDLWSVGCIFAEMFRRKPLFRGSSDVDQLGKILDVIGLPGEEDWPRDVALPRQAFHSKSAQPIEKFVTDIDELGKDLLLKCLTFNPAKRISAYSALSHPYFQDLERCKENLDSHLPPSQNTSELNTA

ΔTm	Compound
-0.4 °C	Cc1[nH]c(/C=C2\C(=O)Nc3ccc(S(=O)(=O)N(C)c4cccc(Cl)c4)cc32)c(C)c1C(=O)N1CCN(C)CC1
1.1 °C	COc1cc2ncnc(Nc3ccc(NC(=O)c4ccccc4)cc3)c2cc1OC [ANILINOQUINAZOLINE1]

Compound	ΔTm
NC(=O)c1ccc2[nH]c(-c3ccc(Oc4ccc(Cl)cc4)cc3)nc2c1	0.6 °C

Each compound was assayed against Cyclin-dependent kinase-like 1 (Homo sapiens) (UniProt Q00532).
Cyclin-dependent kinase-like 1 (Homo sapiens), sequence (Q00532 whole entry): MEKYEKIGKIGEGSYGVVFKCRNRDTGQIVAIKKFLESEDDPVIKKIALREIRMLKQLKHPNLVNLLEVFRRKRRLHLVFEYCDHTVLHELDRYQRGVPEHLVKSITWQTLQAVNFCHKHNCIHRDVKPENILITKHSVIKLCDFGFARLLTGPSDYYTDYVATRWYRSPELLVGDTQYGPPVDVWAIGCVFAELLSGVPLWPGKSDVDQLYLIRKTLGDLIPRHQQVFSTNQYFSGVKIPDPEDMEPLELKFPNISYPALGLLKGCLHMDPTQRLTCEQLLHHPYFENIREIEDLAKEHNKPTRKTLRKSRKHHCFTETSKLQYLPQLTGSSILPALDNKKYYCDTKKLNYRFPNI

ΔTm	Compound
-0.5 °C	Cc1[nH]c(/C=C2\C(=O)Nc3ccc(S(=O)(=O)N(C)c4cccc(Cl)c4)cc32)c(C)c1C(=O)N1CCN(C)CC1
0 °C	COc1cc2ncnc(Nc3ccc(NC(=O)c4ccccc4)cc3)c2cc1OC [ANILINOQUINAZOLINE1]

Compound	ΔTm
NC(=O)c1ccc2[nH]c(-c3ccc(Oc4ccc(Cl)cc4)cc3)nc2c1	0.1 °C

The compounds below were run against Serine/threonine-protein kinase Chk2 (Homo sapiens, UniProt O96017).

ΔTm	Compound
2.9 °C	Cc1[nH]c(/C=C2\C(=O)Nc3ccc(S(=O)(=O)N(C)c4cccc(Cl)c4)cc32)c(C)c1C(=O)N1CCN(C)CC1
7.3 °C	COc1cc2ncnc(Nc3ccc(NC(=O)c4ccccc4)cc3)c2cc1OC [ANILINOQUINAZOLINE1]

These compounds were tested against Dual specificity protein kinase CLK1 (Homo sapiens) (UniProt P49759).
Dual specificity protein kinase CLK1 (Homo sapiens), sequence (P49759 whole entry, looked up): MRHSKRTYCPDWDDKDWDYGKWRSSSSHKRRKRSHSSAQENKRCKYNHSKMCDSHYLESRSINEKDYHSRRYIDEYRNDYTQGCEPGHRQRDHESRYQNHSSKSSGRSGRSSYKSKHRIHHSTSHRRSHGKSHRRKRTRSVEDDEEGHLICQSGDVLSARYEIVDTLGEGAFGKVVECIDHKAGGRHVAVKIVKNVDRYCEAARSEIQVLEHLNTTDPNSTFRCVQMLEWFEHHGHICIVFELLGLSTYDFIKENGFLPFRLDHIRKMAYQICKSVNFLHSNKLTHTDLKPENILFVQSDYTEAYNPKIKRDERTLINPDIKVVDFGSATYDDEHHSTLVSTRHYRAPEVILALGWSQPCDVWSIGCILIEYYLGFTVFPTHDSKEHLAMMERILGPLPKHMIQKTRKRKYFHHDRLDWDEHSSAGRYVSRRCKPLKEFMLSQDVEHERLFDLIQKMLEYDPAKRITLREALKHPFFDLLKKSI

ΔTm	Compound
2.1 °C	Cc1[nH]c(/C=C2\C(=O)Nc3ccc(S(=O)(=O)N(C)c4cccc(Cl)c4)cc32)c(C)c1C(=O)N1CCN(C)CC1
1 °C	COc1cc2ncnc(Nc3ccc(NC(=O)c4ccccc4)cc3)c2cc1OC [ANILINOQUINAZOLINE1]

Compound	ΔTm
NC(=O)c1ccc2[nH]c(-c3ccc(Oc4ccc(Cl)cc4)cc3)nc2c1	1.2 °C

Each compound was assayed against Glycogen synthase kinase-3 beta (Homo sapiens, UniProt P49841).
Glycogen synthase kinase-3 beta, sequence (P49841 whole entry, looked up): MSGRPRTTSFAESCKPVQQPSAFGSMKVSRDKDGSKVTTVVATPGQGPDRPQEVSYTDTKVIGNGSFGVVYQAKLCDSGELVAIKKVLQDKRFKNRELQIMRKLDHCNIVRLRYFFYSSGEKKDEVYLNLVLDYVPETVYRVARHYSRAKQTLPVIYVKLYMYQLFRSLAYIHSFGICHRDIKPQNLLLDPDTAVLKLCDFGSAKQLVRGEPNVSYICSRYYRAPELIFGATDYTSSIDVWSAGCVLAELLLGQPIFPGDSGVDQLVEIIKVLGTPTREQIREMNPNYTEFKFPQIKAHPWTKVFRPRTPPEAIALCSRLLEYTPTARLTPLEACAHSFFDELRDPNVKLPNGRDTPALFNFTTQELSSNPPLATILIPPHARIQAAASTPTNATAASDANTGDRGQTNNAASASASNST

ΔTm	Compound
4.2 °C	Cc1[nH]c(/C=C2\C(=O)Nc3ccc(S(=O)(=O)N(C)c4cccc(Cl)c4)cc32)c(C)c1C(=O)N1CCN(C)CC1
2.9 °C	COc1cc2ncnc(Nc3ccc(NC(=O)c4ccccc4)cc3)c2cc1OC [ANILINOQUINAZOLINE1]

Compound	ΔTm
NC(=O)c1ccc2[nH]c(-c3ccc(Oc4ccc(Cl)cc4)cc3)nc2c1	1 °C

What follows are compounds tested against Mitogen-activated protein kinase 11 (Homo sapiens, UniProt Q15759).

ΔTm	Compound
0.1 °C	Cc1[nH]c(/C=C2\C(=O)Nc3ccc(S(=O)(=O)N(C)c4cccc(Cl)c4)cc32)c(C)c1C(=O)N1CCN(C)CC1
0.3 °C	COc1cc2ncnc(Nc3ccc(NC(=O)c4ccccc4)cc3)c2cc1OC [ANILINOQUINAZOLINE1]

Compound	ΔTm
NC(=O)c1ccc2[nH]c(-c3ccc(Oc4ccc(Cl)cc4)cc3)nc2c1	-0.4 °C

Each compound was assayed against T1, Serine/threonine-protein kinase Nek2 (Homo sapiens) (UniProt P51955).
T1 sequence (whole entry): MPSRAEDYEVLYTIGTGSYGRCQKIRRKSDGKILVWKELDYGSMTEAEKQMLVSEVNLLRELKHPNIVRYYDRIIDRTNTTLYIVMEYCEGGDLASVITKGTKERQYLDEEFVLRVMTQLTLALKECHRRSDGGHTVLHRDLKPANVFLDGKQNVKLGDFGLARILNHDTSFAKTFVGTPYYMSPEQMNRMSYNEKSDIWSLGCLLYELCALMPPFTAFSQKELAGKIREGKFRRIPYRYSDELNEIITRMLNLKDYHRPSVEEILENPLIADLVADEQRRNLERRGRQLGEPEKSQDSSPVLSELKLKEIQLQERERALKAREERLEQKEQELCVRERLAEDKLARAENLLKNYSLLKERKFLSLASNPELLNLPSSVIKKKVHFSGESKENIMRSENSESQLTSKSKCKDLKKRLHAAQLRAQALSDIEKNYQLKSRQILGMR

ΔTm	Compound
0.1 °C	Cc1[nH]c(/C=C2\C(=O)Nc3ccc(S(=O)(=O)N(C)c4cccc(Cl)c4)cc32)c(C)c1C(=O)N1CCN(C)CC1
0.3 °C	COc1cc2ncnc(Nc3ccc(NC(=O)c4ccccc4)cc3)c2cc1OC [ANILINOQUINAZOLINE1]

Compound	ΔTm
NC(=O)c1ccc2[nH]c(-c3ccc(Oc4ccc(Cl)cc4)cc3)nc2c1	1.4 °C

Each compound was assayed against Serine/threonine-protein kinase PAK 5 (Homo sapiens) (UniProt Q9P286).
Serine/threonine-protein kinase PAK 5 (Homo sapiens), sequence (Q9P286 whole entry, looked up): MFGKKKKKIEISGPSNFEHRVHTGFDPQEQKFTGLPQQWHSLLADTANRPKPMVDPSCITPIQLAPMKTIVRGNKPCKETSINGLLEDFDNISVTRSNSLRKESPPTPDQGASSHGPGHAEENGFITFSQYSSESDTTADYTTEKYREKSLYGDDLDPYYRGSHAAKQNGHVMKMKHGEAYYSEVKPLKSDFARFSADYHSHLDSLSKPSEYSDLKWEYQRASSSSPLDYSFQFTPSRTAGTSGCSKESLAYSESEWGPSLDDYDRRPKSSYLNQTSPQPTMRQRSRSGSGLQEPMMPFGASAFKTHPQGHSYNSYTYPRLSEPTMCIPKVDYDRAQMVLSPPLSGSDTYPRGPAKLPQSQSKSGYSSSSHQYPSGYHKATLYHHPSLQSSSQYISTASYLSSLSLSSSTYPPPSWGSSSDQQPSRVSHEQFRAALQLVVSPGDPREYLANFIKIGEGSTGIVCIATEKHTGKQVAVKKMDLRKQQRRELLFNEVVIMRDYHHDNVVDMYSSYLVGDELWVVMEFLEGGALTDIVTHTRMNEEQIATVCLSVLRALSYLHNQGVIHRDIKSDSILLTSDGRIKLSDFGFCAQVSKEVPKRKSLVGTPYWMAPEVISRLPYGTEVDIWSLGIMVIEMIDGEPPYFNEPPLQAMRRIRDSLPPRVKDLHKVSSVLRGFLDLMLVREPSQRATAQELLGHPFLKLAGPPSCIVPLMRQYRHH

ΔTm	Compound
0.9 °C	Cc1[nH]c(/C=C2\C(=O)Nc3ccc(S(=O)(=O)N(C)c4cccc(Cl)c4)cc32)c(C)c1C(=O)N1CCN(C)CC1
-0.2 °C	COc1cc2ncnc(Nc3ccc(NC(=O)c4ccccc4)cc3)c2cc1OC [ANILINOQUINAZOLINE1]

Compound	ΔTm
NC(=O)c1ccc2[nH]c(-c3ccc(Oc4ccc(Cl)cc4)cc3)nc2c1	-0.2 °C

Each compound was assayed against T2, 3-phosphoinositide-dependent protein kinase 1 (Homo sapiens) (UniProt O15530).
T2 sequence (whole entry): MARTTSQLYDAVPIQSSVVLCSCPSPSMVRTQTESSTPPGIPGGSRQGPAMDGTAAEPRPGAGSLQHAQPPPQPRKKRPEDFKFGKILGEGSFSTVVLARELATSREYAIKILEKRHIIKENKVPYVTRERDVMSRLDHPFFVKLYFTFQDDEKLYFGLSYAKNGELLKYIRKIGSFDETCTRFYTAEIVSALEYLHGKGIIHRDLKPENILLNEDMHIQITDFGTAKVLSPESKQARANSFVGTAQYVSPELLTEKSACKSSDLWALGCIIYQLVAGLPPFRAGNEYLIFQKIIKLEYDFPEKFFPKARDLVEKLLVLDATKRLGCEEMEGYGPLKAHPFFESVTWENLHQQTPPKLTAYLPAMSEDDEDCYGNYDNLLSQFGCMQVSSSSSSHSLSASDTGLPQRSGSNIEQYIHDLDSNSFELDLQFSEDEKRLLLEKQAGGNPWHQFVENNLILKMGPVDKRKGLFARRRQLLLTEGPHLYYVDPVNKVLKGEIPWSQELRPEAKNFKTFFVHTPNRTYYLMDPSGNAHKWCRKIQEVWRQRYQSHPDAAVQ

ΔTm	Compound
-0.6 °C	Cc1[nH]c(/C=C2\C(=O)Nc3ccc(S(=O)(=O)N(C)c4cccc(Cl)c4)cc32)c(C)c1C(=O)N1CCN(C)CC1
1.1 °C	COc1cc2ncnc(Nc3ccc(NC(=O)c4ccccc4)cc3)c2cc1OC [ANILINOQUINAZOLINE1]

Compound	ΔTm
NC(=O)c1ccc2[nH]c(-c3ccc(Oc4ccc(Cl)cc4)cc3)nc2c1	-0.5 °C

Each compound was assayed against Serine/threonine-protein kinase pim-1 (Homo sapiens) (UniProt P11309).
Serine/threonine-protein kinase pim-1 (Homo sapiens), sequence (P11309 whole entry, looked up): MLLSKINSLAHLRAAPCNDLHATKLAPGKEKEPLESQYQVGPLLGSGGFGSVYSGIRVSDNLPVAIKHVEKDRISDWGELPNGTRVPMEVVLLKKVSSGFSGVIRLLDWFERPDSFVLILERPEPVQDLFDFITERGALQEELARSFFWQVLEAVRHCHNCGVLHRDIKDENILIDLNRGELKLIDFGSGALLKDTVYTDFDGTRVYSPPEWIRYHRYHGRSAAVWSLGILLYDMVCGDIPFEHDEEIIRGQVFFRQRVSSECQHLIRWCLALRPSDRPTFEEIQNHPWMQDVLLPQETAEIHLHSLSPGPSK

ΔTm	Compound
-0.2 °C	Cc1[nH]c(/C=C2\C(=O)Nc3ccc(S(=O)(=O)N(C)c4cccc(Cl)c4)cc32)c(C)c1C(=O)N1CCN(C)CC1
0.7 °C	COc1cc2ncnc(Nc3ccc(NC(=O)c4ccccc4)cc3)c2cc1OC [ANILINOQUINAZOLINE1]

Compound	ΔTm
NC(=O)c1ccc2[nH]c(-c3ccc(Oc4ccc(Cl)cc4)cc3)nc2c1	0.4 °C

The compounds below were run against T3, Serine/threonine-protein kinase PLK4 (Homo sapiens) (UniProt O00444).
T3 sequence (whole entry): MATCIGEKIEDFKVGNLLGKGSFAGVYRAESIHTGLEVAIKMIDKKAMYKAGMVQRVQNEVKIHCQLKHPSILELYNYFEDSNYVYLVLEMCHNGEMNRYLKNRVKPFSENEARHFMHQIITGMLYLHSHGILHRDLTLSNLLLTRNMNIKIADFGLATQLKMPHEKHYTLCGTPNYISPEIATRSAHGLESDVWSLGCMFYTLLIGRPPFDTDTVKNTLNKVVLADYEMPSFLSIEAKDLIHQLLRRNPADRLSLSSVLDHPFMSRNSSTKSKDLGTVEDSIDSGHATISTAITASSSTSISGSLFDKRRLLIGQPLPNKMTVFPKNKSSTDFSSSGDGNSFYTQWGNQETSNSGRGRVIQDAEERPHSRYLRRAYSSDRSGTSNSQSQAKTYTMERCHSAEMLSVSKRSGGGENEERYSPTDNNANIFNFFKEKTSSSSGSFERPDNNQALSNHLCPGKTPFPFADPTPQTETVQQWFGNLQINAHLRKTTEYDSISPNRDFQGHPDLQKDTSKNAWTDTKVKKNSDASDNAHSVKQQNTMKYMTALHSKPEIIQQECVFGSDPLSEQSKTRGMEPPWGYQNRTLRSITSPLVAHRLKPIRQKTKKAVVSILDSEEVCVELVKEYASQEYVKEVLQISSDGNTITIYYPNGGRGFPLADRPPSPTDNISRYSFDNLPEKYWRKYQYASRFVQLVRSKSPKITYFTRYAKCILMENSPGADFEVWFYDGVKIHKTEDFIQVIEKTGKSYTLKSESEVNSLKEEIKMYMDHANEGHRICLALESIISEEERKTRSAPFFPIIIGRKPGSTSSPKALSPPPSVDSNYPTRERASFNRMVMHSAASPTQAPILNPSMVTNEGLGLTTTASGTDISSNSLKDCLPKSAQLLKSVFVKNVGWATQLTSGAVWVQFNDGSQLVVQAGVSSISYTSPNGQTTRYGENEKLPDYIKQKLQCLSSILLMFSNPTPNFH

ΔTm	Compound
0.8 °C	Cc1[nH]c(/C=C2\C(=O)Nc3ccc(S(=O)(=O)N(C)c4cccc(Cl)c4)cc32)c(C)c1C(=O)N1CCN(C)CC1
0.5 °C	COc1cc2ncnc(Nc3ccc(NC(=O)c4ccccc4)cc3)c2cc1OC [ANILINOQUINAZOLINE1]

Compound	ΔTm
NC(=O)c1ccc2[nH]c(-c3ccc(Oc4ccc(Cl)cc4)cc3)nc2c1	1.4 °C

Each compound was assayed against Ribosomal protein S6 kinase alpha-3 (Homo sapiens) (UniProt P51812).
Ribosomal protein S6 kinase alpha-3 (Homo sapiens), sequence (P51812 whole entry): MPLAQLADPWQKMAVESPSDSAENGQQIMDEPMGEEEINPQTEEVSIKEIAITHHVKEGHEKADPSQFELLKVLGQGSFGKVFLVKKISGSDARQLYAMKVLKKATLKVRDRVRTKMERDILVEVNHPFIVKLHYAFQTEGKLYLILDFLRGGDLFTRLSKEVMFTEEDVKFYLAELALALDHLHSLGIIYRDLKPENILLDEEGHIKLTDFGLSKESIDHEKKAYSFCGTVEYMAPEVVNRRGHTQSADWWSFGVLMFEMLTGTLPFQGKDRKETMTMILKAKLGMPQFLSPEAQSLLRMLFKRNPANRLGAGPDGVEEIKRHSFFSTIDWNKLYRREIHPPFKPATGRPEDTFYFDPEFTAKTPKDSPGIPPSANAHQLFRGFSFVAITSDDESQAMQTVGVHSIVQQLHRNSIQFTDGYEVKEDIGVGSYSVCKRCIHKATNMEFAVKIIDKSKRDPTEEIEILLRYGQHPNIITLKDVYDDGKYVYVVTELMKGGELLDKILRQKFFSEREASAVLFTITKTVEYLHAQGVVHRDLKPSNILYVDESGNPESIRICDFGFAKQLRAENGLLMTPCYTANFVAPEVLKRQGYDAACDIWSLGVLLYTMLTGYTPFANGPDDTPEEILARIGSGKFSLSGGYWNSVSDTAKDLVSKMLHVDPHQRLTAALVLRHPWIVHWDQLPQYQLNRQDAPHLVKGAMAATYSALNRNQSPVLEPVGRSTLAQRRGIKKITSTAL

ΔTm	Compound
11.3 °C	Cc1[nH]c(/C=C2\C(=O)Nc3ccc(S(=O)(=O)N(C)c4cccc(Cl)c4)cc32)c(C)c1C(=O)N1CCN(C)CC1
9.4 °C	COc1cc2ncnc(Nc3ccc(NC(=O)c4ccccc4)cc3)c2cc1OC [ANILINOQUINAZOLINE1]

Compound	ΔTm
NC(=O)c1ccc2[nH]c(-c3ccc(Oc4ccc(Cl)cc4)cc3)nc2c1	1 °C

What follows are compounds tested against STE20-like serine/threonine-protein kinase (Homo sapiens) (UniProt Q9H2G2).
STE20-like serine/threonine-protein kinase (Homo sapiens), sequence (Q9H2G2 whole entry, looked up): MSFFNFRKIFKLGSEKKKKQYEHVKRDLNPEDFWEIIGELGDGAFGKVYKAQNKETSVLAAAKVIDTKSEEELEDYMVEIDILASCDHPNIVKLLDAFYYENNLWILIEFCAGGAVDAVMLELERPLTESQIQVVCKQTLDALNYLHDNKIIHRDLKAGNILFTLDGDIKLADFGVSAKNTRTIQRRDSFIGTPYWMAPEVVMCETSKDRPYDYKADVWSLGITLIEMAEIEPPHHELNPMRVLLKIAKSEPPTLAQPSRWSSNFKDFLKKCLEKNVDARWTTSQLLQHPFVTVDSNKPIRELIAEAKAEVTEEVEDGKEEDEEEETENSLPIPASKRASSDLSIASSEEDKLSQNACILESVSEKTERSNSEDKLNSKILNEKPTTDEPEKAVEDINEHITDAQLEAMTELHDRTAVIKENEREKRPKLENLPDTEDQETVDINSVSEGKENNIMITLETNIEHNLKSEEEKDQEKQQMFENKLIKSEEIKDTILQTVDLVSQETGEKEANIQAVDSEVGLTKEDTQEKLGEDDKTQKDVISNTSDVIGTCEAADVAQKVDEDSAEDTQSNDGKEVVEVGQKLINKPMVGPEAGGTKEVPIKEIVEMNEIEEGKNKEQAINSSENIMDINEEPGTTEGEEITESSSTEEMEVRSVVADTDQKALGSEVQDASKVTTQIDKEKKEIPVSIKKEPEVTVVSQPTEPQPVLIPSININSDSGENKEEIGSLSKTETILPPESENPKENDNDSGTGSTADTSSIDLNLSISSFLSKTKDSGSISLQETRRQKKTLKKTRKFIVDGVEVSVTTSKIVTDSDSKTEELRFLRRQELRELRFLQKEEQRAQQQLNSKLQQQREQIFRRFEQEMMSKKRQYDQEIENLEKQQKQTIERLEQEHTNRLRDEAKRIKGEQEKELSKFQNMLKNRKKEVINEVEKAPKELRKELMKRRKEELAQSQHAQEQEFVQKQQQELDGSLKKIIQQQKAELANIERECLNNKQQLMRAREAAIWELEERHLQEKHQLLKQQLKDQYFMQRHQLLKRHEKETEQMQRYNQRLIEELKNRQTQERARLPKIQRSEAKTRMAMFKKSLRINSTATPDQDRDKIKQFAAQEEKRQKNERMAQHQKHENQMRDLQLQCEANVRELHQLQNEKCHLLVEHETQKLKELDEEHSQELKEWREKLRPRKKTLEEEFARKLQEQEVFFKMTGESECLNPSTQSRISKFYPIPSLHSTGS

ΔTm	Compound
2.4 °C	Cc1[nH]c(/C=C2\C(=O)Nc3ccc(S(=O)(=O)N(C)c4cccc(Cl)c4)cc32)c(C)c1C(=O)N1CCN(C)CC1
0.1 °C	COc1cc2ncnc(Nc3ccc(NC(=O)c4ccccc4)cc3)c2cc1OC [ANILINOQUINAZOLINE1]

Compound	ΔTm
NC(=O)c1ccc2[nH]c(-c3ccc(Oc4ccc(Cl)cc4)cc3)nc2c1	0 °C

What follows are compounds tested against Serine/threonine-protein kinase 26 (Homo sapiens) (UniProt Q9P289).

ΔTm	Compound
-0.2 °C	Cc1[nH]c(/C=C2\C(=O)Nc3ccc(S(=O)(=O)N(C)c4cccc(Cl)c4)cc32)c(C)c1C(=O)N1CCN(C)CC1
0 °C	COc1cc2ncnc(Nc3ccc(NC(=O)c4ccccc4)cc3)c2cc1OC [ANILINOQUINAZOLINE1]

Compound	ΔTm
NC(=O)c1ccc2[nH]c(-c3ccc(Oc4ccc(Cl)cc4)cc3)nc2c1	1.3 °C
